Laboratory results reported in patent US20150094321A1, “COMBINATION” (GlaxoSmithKline LLC, priority 2009, published 2015).
Where two headings read alike, the source gives them in different places.

Assays:
Type in all cases: cell-based, human
JIMT-1 = assay: Cell growth inhibition assay; settings: for IC50: Homo sapiens, JimT-1, breast, HER2+, PIK3CA C420R, single agent, read-out: IC50 Single Agent (mean +/- std); for sensitivity as single agents: JIMT-1
Procedure: (§1) Human breast tumor lines. BT-474, HCC1419, HCC1937, HCC1954, HCC202, KPL-1, MDA-MB-157, MDA-MB-175-VII, MDA-MB-361, MDA-MB-453, SK-BR-3, SUM225PE, UACC893, and ZR-75-1; lung tumor line, CALU-3; and melanoma line, CHL-1, were from ATCC. Human breast tumor line JIMT-1 was from European Collection of Cell Cultures (UK). Human breast tumor lines SUM149PT, SUM190PT and SUM52PE were from Asterand. These lines were cultured in RPMI 1640 medium containing 10% fetal bovine serum (FBS). A head and neck tumor line, LICR LON HN5 (HN5), a gift from the Institute of Cancer Research, Surrey, U.K, was cultured in Dulbecco's modified Eagle medium (DMEM) containing 5% FBS; KPL-4 breast tumor cell line was kindly provided by Dr Junichi Kurebayashi (Kawasaki Medical School, Okayama, Japan) and cultured in DMEM containing 5% FBS. JIMT-1 is a line derived from a patient clinically resistant to trastuzumab (Herceptin®). BT-474-J4 is a single cell clone derived from a pool of BT-474 cells that were selected to grow in lapatinib to a concentration of 3 μM.
(§2) All cells were cultured for a minimum of 72 hours prior to cell plating. Cells were assayed in a 96-well tissue culture plate (NUNC 136102) of RPMI medium containing 10% FBS for all cells at 2,000 cells per well except KPL-4 and HN5 which were plated in DMEM containing 5% FBS at 500 cells per well. Approximately 24 hours after plating, cells were exposed to ten, two-fold or three-fold serial dilutions of compound or the combination of the two agents at a constant molar to molar ratio of 1:1 Compound A to Compound B in RPMI media containing 10% FBS or DMEM containing 5% FBS. Cells were incubated in the presence of compounds for 3 days. ATP levels were determined by adding Cell Titer Glo® (Promega) according to the manufacturer's protocol. Briefly, Cell Titer Glo® was added each plate, incubated for 20 minutes then luminescent signal was read on the SpectraMax L plate reader with a 0.5 sec integration time.
(§3) Inhibition of cell growth was estimated after treatment with compound or combination of compounds for three days and comparing the signal to cells treated with vehicle (DMSO). Cell growth was calculated relative to vehicle (DMSO) treated control wells. Concentration of compound that inhibits 50% of control cell growth (IC50) was interpolated using nonlinear regression with the equation, y=(A+(B−A)/(1+(C/x)̂D))), where A is the minimum response (ymin), B is the maximum response (ymax), C is the inflection point of the curve (EC50) and D is the Hill coefficient. […]

BT-474-J4 = assay: Cell growth inhibition assay; settings: BT-474-J4, breast, HER2+, PIK3CA K111N, single agent, read-out: IC50 Single Agent (mean +/- std)
Procedure: as §1, §2, §3

SUM225PE = assay: Cell growth inhibition assay; settings: breast, HER2+, WT, single agent, read-out: IC50 Single Agent (mean +/- std)
Procedure: as §1, §2, §3

T84 = assay: Cell line proliferation study; settings: T84, colon; for IC50: Homo sapiens, 72 hours, read-out: gIC50
Procedure: In a separate study, combination drug tests with Compounds A and B were conducted using a panel of cell lines from human colon cancers (n=26), lung cancers (n=15) and pancreatic cancers (n=6). Cell lines were obtained from commercial vendors (ATCC and DSMZ). Cell lines were grown in RPMI-1640 supplemented with 2 mM glutamine, 1 mM sodium pyruvate and 10% fetal bovine serum (except for Capan-1 and HuP-T4 which were grown with 20% fetal bovine serum) and maintained at 37° C. and 5% CO2 in a humid incubator. Assays were performed in 384 well microtiter plates with optimum seeding densities for each cell line.
The test compounds were prepared as 10 mM stocks in 100% DMSO. Further dilutions of the compounds were made in DMSO. Compound A was diluted horizontally in a separate 96 well microtiter plate in rows D-G using a 3-fold dilution series for 10 dilution points. Compound B was similarly diluted horizontally in a 96 well microtiter plate in rows B-E using a 3-fold dilution series for 10 dilution points.
The two compounds were combined using equal volumes from each drug plate into cell culture media. […] Both Compound A and Compound B were individually titrated in rows B and C (for Compound B) and rows F and G (for Compound A) of the merged drug plate.
A 1:10 dilution of the drugs was performed in cell culture media prior to addition to the cells.
The final concentration range for the test compounds was 250 to 0.013 nM for Compound A and 1000 to […] for Compound B. The positive control consisted of culture media with DMSO at 0.1% and cells. The negative control consisted of culture media with DMSO at 0.1%. The cell lines were incubated at 37° C., 5% CO2 in humid air for 72 hours. Cell proliferation was measured using the CellTiter Glo (Promega) reagent according to the manufacturer's protocol. The plates are treated with CellTiter Glo solution and are analyzed for RLU (relative light units) using a Molecular Devices SpectraMax M5 plate reader.
The percent intensity values were used in model 205 of XLfit (IDBS, Inc.) in Microsoft Excel to calculate gIC50 values using a 4 parameter logistical fit. The midpoint of the growth window (the gIC50) falls half way between the number of cells at the time of compound addition (T=0) and the growth of control cells treated with DMSO at 72 hrs. The number of cells at time zero (T0) is divided from the intensity value at the bottom of the response curve (Ymin) to generate a measure for cell death (Ymin/T0). A value below 1 for Ymin/T0 indicates stronger potency to induce cell death with the treatment when compared to higher values.
1. Excess over Highest Single Agent (EOHSA)—This was calculated as described above (Borisy et al, 2003; FDA 21 CFR 300.50) 2. Bliss synergy—A second criterion often used to determine combination synergy is evaluating the excess inhibition over Bliss independence or “additivity” (Bliss and Mexico, 1939). The model assumes a combined response of the two compounds independently using the following:
Where Ea is the effect (or percent inhibition) of Compound A and Eb is the effect of Compound B. The resulting effect of the combination of the two compounds is compared to their predicted additivity by Bliss and a synergy score is generated for each dose along the response curve. 3. Combination Index (CI)—A third criterion traditionally used for the evaluation of synergy is Combination Index (CI) derived from the Chou and Talalay (1984). The following equation is a model used for compounds that behave with different mechanisms of action (mutually non-exclusive formula). This was calculated as described above.
For EOHSA and Bliss Synergy measures, a score is generated for each dose along the response curve. These scores reflect the percentage over the highest agent (EOHSA) or percentage greater than Bliss additivity, depending on which metric is being interpreted. […]

Compound: CC(=O)Nc1cccc(-n2c(=O)n(C3CC3)c(=O)c3c(Nc4ccc(I)cc4F)n(C)c(=O)c(C)c32)c1 [Compound A, N-{3-[3-cyclopropyl-5-(2-fluoro-4-iodo-phenylamino)-6,8-dimethyl-2,4,7-trioxo-3,4,6,7-tetrahydro-2H-pyrido[4,3-d]pyrimidin-1-yl]phenyl}acetamide]
- IC50 (JIMT-1): > 1000 nM
- sensitivity as single agents (JIMT-1): not sensitive
- IC50 (BT-474-J4; Homo sapiens): > 1000 nM
- IC50 (SUM225PE; Homo sapiens): > 1000 nM
- IC50 (T84): 139 nM
- Ymin/T0 (T84): 12.44

Compound: Cn1ncc(Cl)c1-c1cc(C(=O)N[C@H](CN)Cc2ccc(F)c(F)c2)oc1Cl [Compound B, N-{(1S)-2-amino-1-[(3,4-difluorophenyl)methyl]ethyl}-5-chloro-4-(4-chloro-1-methyl-1H-pyrazol-5-yl)-2-furancarboxamide]
- IC50 (JIMT-1): > 1000 nM
- sensitivity as single agents (JIMT-1): not sensitive
- IC50 (BT-474-J4): 217 nM
- IC50 (BT-474-J4; Homo sapiens): 271 nM
- IC50 (SUM225PE; Homo sapiens): < 1000 nM
- IC50 (SUM225PE): 529 nM
- IC50 (T84): 427 nM
- Ymin/T0 (T84): −5.58
